Data as given in patent US20130296316A1, “Antiparasitic Agents Based On mTOR Inhibitors” (priority 2010, published 2013).
Read-outs that look alike come from different tables or passages of the source.

Key:
L. major promastigotes [1] = assay: Potency assessment against Leishmania major promastigotes (growth, cell counting); type: cell-based; settings: for EC50 / IC50: Leishmania major; for EC50: promastigotes, average of three replicates, read-out: Effective concentration (EC50) L. major; for activity against L. major promastigotes in words: highest concentration tested; for IC50: Table 2B, read-out: L. major Promastigote IC50, growth inhibition
T. cruzi trypomastigotes = assay: T. cruzi intracellular replication in NIH/3T3 host cells (β-galactosidase, CPRG); type: cell-based, Trypanosoma cruzi; settings: Trypanosoma cruzi; for EC50: NIH3T3, 96 h, trypomastigotes with 3T3 host cells, four days, three replicates within ±10.2%, read-out: Effective concentration (EC50) T. cruzi; for IC50: NIH3T3, Table 2B, read-out: T. Cruzi IC50, growth inhibition
[2] = tested on: T. brucei brucei Lister 427; assay: Potency assessment against T. brucei brucei Lister 427 bloodstream form (AlamarBlue, 72 h); type: cell-based, Trypanosoma brucei brucei; settings: Trypanosoma brucei
[3] = tested on: L. donovani axenic amastigotes; assay: Potency assessment against Leishmania donovani axenic amastigotes (growth, cell counting); type: cell-based; settings: for EC50 / IC50: Leishmania donovani; for EC50: axenic amastigotes, average of three replicates, read-out: Effective concentration (EC50) L. donovani axenic amastigotes; for activity against L. donovani axenic amastigotes in words: highest concentration tested; for IC50: Table 2B, read-out: L. donovani Axenic Amastigote IC50, growth inhibition
T. b. rhodesiense = assay: Potency assessment against T. b. rhodesiense EATRO3 bloodstream form (AlamarBlue, 72 h); type: cell-based, Trypanosoma brucei rhodesiense; settings: Trypanosoma brucei, RHODESIENSE; for IC50: Table 2B, read-out: T. brucei rhod IC50, growth inhibition
human cells = settings: literature, Table 1; read-out: Inhibition of Cell Growth EC50; cited from earlier work
[4] = tested on: T. brucei brucei Lister 427 bloodstream cells; assay: Morphological and cell cycle alterations in T. brucei (flow cytometry); type: cell-based, Trypanosoma brucei brucei; settings: 16 h; PI-103 1 μM, WYE-354 2 μM, Pp242 2 μM, NVP-BEZ235 100 nM
Procedure: Flow cytometry was used to assess cell size and DNA content, to reveal a G1 arrest and inhibition of protein synthesis or G2 arrest and multinucleated cells. […]. After permeabilization with […], saponin (0.5 mg/mL final concentration), the culture was RNAse treated for 30 minutes (10 μg/mL final concentration) and stained with 20 μg/mL propidium iodide immediately before its acquisition in a FACscan cytometer. Cells incubated with equivalent concentration of drug solvent (DMSO) were included in each experiment as control population.

[5] = tested on: L. donovani promastigotes; assay: Potency assessment against Leishmania donovani promastigotes (growth, cell counting); type: cell-based; settings: Leishmania donovani
Leishmania = Leishmania growth inhibition summarised across both species and stages; type: cell-based; settings: range over L. major and L. donovani, promastigotes and amastigotes; read-out: inhibition of Leishmania across both species and stages
L. major promastigotes [6] = assay: Cell size and DNA content analysis in Leishmania (flow cytometry); type: cell-based, Leishmania major
Procedure: L. major log phase promastigotes were inoculated at a concentration of 10^6 cells/ml into media with compounds as indicated, and incubated overnight with varying drug concentrations to assess cell size and DNA content. For cell size, forward scatter of live promastigotes was measured by a FACS flow cytometer (Becton Dickinson), utilizing dye exclusion with 5 μg/ml propidium iodide (PI) to gate for live cells. DNA content was determined by flow cytometry using fixed and permeabilized L. major stained with PI as previously described, but reducing the incubation time with PI and RNase A from 1 hour to 30 minutes. Histogram analysis was performed using CellQuest 3.1 software (BD Bioscience).

PI3K p110α = PI3K p110α (Homo sapiens, UniProt P42336); settings: human enzyme, Table 1; cited from earlier work
Sequence of PI3K p110α (P42336 whole entry): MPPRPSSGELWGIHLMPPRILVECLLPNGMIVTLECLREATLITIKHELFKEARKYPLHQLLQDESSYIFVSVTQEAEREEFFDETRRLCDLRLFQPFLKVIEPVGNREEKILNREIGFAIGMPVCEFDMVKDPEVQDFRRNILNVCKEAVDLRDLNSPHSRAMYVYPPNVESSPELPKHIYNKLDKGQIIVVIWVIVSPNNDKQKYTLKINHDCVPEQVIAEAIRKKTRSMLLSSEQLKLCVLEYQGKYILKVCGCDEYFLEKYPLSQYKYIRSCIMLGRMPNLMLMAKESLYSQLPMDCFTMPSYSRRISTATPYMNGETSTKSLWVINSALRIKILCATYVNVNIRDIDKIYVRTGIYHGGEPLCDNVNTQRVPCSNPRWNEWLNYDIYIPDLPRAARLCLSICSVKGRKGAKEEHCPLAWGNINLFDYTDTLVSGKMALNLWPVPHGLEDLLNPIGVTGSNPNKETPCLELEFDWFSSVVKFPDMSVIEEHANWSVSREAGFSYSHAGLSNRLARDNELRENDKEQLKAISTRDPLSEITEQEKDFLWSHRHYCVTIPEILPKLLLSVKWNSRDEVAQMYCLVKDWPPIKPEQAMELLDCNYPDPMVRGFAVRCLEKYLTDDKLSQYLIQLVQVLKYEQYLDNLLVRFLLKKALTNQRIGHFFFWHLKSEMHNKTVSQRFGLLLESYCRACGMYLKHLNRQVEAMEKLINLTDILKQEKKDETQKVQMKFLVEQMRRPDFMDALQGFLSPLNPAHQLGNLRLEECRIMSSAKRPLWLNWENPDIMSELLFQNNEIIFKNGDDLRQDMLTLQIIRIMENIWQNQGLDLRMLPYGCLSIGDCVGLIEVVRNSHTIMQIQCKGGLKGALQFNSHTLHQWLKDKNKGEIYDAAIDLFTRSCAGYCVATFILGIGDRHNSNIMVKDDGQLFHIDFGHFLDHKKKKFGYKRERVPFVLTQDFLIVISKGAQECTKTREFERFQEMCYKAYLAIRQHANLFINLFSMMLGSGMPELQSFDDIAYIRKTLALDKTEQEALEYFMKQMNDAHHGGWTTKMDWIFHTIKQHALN
Sequence of PI3K p110α (P27986 whole entry partner): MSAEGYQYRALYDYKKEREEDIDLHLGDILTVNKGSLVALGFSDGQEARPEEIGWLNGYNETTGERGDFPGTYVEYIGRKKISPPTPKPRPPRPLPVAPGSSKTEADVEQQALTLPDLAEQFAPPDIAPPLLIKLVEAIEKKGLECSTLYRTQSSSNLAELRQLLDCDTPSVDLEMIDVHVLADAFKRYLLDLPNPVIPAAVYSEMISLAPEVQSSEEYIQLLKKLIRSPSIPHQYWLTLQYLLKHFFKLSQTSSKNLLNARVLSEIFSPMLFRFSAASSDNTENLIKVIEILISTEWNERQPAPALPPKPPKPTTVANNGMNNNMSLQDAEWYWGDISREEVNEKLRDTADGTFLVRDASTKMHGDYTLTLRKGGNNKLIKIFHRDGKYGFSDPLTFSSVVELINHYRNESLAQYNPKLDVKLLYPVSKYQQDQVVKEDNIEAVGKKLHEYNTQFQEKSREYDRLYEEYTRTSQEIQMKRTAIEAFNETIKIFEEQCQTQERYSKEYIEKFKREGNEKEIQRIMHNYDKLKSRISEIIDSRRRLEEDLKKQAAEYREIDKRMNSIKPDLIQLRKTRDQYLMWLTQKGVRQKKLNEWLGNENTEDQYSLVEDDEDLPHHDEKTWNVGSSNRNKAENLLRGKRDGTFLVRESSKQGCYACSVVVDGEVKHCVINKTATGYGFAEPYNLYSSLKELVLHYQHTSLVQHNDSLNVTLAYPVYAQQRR

mTOR = mTOR (Homo sapiens, UniProt P42345); settings: mammalian cells / literature; cited from earlier work
[7] = bloodstream form, average of three replicates, read-out: Effective concentration (EC50) T. b. brucei

## O=c1cc(N2CCNCC2)oc2c(-c3ccccc3)cccc12 [LY303511, 2-piperazinyl-8-phenyl-4H-1-benzopyran-4-one]
L. major promastigotes [1]
  EC50: > 25 µM
  activity against L. major promastigotes in words: inactive
T. cruzi trypomastigotes
  EC50: > 10 µM
[2]; [7]
  EC50: > 2 µM
[3]
  EC50: > 5 µM
  activity against L. donovani axenic amastigotes in words: inactive

## CCOCCNc1nc(-c2cccc(O)c2)nc2c1oc1ncccc12 [NEU-0000362]
T. b. rhodesiense
  IC50: > 1 µM
T. cruzi trypomastigotes
  IC50: > 50 µM

## Oc1cccc(-c2nc(N3CCOCC3)c3oc4ncccc4c3n2)c1 [PI-103]
Human cells
  EC50: 0.5 µM
T. b. rhodesiense; bloodstream form, average of three replicates, read-out: Effective concentration (EC50) T. b. rhodesiense
  EC50: 0.105 ± 0.01 µM
T. b. rhodesiense; read-out: activity against T. b. rhodesiense cultures
  EC50: 0.1 µM
L. major promastigotes [1]
  EC50: 0.32 ± 0.16 µM
T. cruzi trypomastigotes
  EC50: > 25 µM
[4]
  effect on cellular DNA content / cell cycle, T. b. brucei: G1 arrest
[2]; [7]
  EC50: 0.214 ± 0.036 µM
[2]; read-out: activity against T. b. brucei cultures
  EC50: 0.2 µM
[5]; promastigotes, average of three replicates, read-out: Effective concentration (EC50) L. donovani promastigotes
  EC50: 1.05 ± 0.28 µM
[3]
  EC50: 0.62 ± 0.41 µM
Leishmania
  EC50: 0.32 to 1.05 µM
L. major promastigotes [6]; overnight, PI-103 4 μM, WYE-354 25 μM, NVP-BEZ235 0.5 μM (EC60-EC90)
  effect on cell size and DNA content, L. major promastigotes: G1 arrest and a decrease in cell size

## COc1ccc(-c2nc(N3CCOCC3)c3oc4ncccc4c3n2)cc1 [NEU-0000365]
T. b. rhodesiense
  IC50: > 5 µM
T. cruzi trypomastigotes
  IC50: > 50 µM

## O=c1cc(N2CCOCC2)nc2c3ccccc3ccn12 [Compound 401, 2-(morpholin-1-yl)pyrimido[2,1-alpha]isoquinolin-4-one]
Human cells
  EC50: 1 µM
PI3K p110α
  IC50: > 100 µM
L. major promastigotes [1]
  EC50: > 25 µM
  activity against L. major promastigotes in words: inactive
T. cruzi trypomastigotes
  EC50: > 10 µM
[2]; [7]
  EC50: > 10 µM
[3]
  EC50: > 5 µM
  activity against L. donovani axenic amastigotes in words: inactive
mTOR
  mTOR IC50 in words: low micromolar concentrations

## CC(C)(C)OC(=O)Nc1ccc(-c2nc(N3CCOCC3)c3cnn(C4CCN(Cc5ccccc5)CC4)c3n2)cc1 [NEU-00000234]
T. b. rhodesiense
  IC50: 2.19 µM
L. major promastigotes [1]
  IC50: 5.49 µM
[5]; Table 2B, read-out: L. donovani Promastigote IC50, growth inhibition
  IC50: 6.34 µM
[3]
  IC50: 6.9 µM

## COc1cccc(-c2nc(N3CCCCC3)c3oc4ncccc4c3n2)c1 [NEU-0000289]
L. major promastigotes [1]
  IC50: 7.65 µM
T. cruzi trypomastigotes
  IC50: 3.9 µM
[3]
  IC50: ~20 µM

## CCOCCNc1nc(-c2cccc(OC)c2)nc2c1oc1ncccc12 [NEU-0000361]
T. b. rhodesiense
  IC50: > 5 µM
T. cruzi trypomastigotes
  IC50: > 50 µM

## CCOCCNc1nc(-c2ccccc2)nc2c1oc1ncccc12 [NEU-0000292]
L. major promastigotes [1]
  IC50: 4 µM
T. cruzi trypomastigotes
  IC50: > 50 µM
[3]
  IC50: 12.5 µM

## CCOc1ccccc1-c1nc(N2CCOCC2)c2oc3ncccc3c2n1 [NEU-0000363]
T. b. rhodesiense
  IC50: > 5 µM
T. cruzi trypomastigotes
  IC50: > 50 µM

## CC(C)n1nc(-c2cc3cc(O)ccc3[nH]2)c2c(N)ncnc21 [Pp242]
[4]
  effect on cellular DNA content / cell cycle, T. b. brucei: G1 arrest
L. major promastigotes [6]; higher concentrations of Pp242
  effect on cell size and DNA content, L. major promastigotes: G2 arrest and increase in cell size
L. major promastigotes [6]; lower concentrations of Pp242
  effect on cell size and DNA content, L. major promastigotes: decrease in cell size and a G1 arrest
